Results on one compound are retold here after BindingDB's records for PubMed 33650861 (Sichuan University, 2021).

This test in a line: Inhibition of BET (unknown origin).

`Cc1sc2c(c1C)C(c1ccc(Cl)cc1)=N[C@@H](CC(=O)OC(C)(C)C)c1nnc(C)n1-2` showed a half-maximal inhibitory concentration (IC50) of 500 nM. This counts as sub-micromolar.
